Measurements: US20070149446A1, “Tamandarin analogs and fragments thereof and methods of making and using” (The Trustees of the University of Pennsylvania Center for …, priority 2003, published 2007)
Like-named read-outs stand apart in the source and are kept apart here. Starred links: 1 amine or outer side, 2 acyl side, 3 side chain; linkers in the order of their positions; H or OH if unused. Positions of bridges follow the written chain, without caps; N, C: chain ends. Non-standard residues stand in square brackets, D forms with d. Residues, ends and D or L forms follow the SMILES beside them. Hexanoyl(3S-OH,4R-NH2,5-Me) = CC(C)[C@@H](N[*:1])[C@@H](O)CC(=O)[*:2]; NMeY = CN[C@@H](Cc1ccc(O)cc1)C(=O)O; NMeF = CN[C@@H](Cc1ccccc1)C(=O)O; dNMeL = CN[C@H](CC(C)C)C(=O)O; Hiv = CC(C)[C@H](O)C(=O)O; Lac = C[C@H](O)C(=O)O

Columns and labels:
[1] = amide bond, HATU/NMM, CH3CN, 25.0 °C, 17.0 h
IGROV = experiment: SRB colorimetric cell growth inhibition assay, IGROV; conditions: SRB, 48 hours exposure; for TGI / CC50: IGROV cells; for TGI: total growth inhibition; for GI50: IGROV ovary adenocarcinoma cells; for CC50: read-out: LC50, cell killing
Procedure: (§1) This form of assay employs 96 well cell culture microplates of […] diameter (Faircloth, 1988; Mosmann, 1983). Most of the cell lines are obtained from American Type Culture Collection (ATCC) derived from different human cancer types.
(§2) Cells are maintained in RPMI 1640 10% FBS, supplemented with 0.1 g/l penicillin and 0.1 g/l streptomycin sulfate and then incubated at 37° C., 5% CO2 and 98% humidity. For the experiments, cells were harvested from subconfluent cultures using trypsin and resuspended in fresh medium before plating.
(§3) Cells are seeded in 96 well microtiter plates, at 5×10^3 cells per well in aliquots of 195 μl medium, and they are allowed to attach to the plate surface by growing in drug free medium for 18 hours. Afterward, samples are added in aliquots of 5 μl in a ranging from 10 to 10-8 μg/ml, dissolved in DMSO/EtOH/PBS (0.5:0.5:99). After 48 hours exposure, the antitumor effect are measured by the SRB methodology: cells are fixed by adding 50 μl of cold 50% (wt/vol) trichloroacetic acid (TCA) and incubated for 60 minutes at 4° C.
(§4) Plates are washed with deionised water and dried. One hundred μl of SRB solution (0.4% wt/vol in 1% acetic acid) is added to each microtiter well and incubated for 10 minutes at room temperature. Unbound SRB is removed by washing with 1% acetic acid. Plates are air dried and bound stain is solubilized with Tris buffer. Optical densities are read on a automated spectrophotometric plate reader at a single wavelength of 490 nm.
(§5) The values for mean+/−SD of data from triplicate wells are calculated.
(§6) Some parameters for cellular responses can be calculated: GI=growth inhibition, TGI=total growth inhibition (cytostatic effect) and LC=cell killing (cytotoxic effect).

SK-MEL-28 = experiment: SRB colorimetric cell growth inhibition assay, SK-MEL-28; conditions: SRB, 48 hours exposure; for GI50: SK-MEL-28 (MEL-28) melanoma cells; for TGI / CC50: SK-MEL-28 cells; for TGI: total growth inhibition; for CC50: read-out: LC50, cell killing
Procedure: as §1, §2, §3, §4, §5, §6

HELA-APL = experiment: SRB colorimetric cell growth inhibition assay, HELA-APL; conditions: SRB, 48 hours exposure; for GI50: HELA-APL (aplidine resistant) cervix cells; for TGI / CC50: HELA-APL cells; for TGI: total growth inhibition; for CC50: read-out: LC50, cell killing
Procedure: as §1, §2, §3, §4, §5, §6

LOVO-DOX = experiment: SRB colorimetric cell growth inhibition assay, LOVO-DOX; conditions: SRB, 48 hours exposure; for GI50: LOVO-DOX (MDR) colon adenocarcinoma cells; for TGI / CC50: LOVO-DOX cells; for TGI: total growth inhibition; for CC50: read-out: LC50, cell killing
Procedure: as §1, §2, §3, §4, §5, §6

K562 = experiment: SRB colorimetric cell growth inhibition assay, K562; conditions: K562 cells, SRB, 48 hours exposure; for TGI: total growth inhibition; for CC50: read-out: LC50, cell killing
Procedure: as §1, §2, §3, §4, §5, §6

LN-caP = experiment: SRB colorimetric cell growth inhibition assay, LN-caP; conditions: SRB, 48 hours exposure; for TGI / CC50: LN-caP cells; for TGI: total growth inhibition; for GI50: LN-caP prostate adenocarcinoma cells; for CC50: read-out: LC50, cell killing
Procedure: as §1, §2, §3, §4, §5, §6

HELA = experiment: SRB colorimetric cell growth inhibition assay, HELA; conditions: SRB, 48 hours exposure; for TGI / CC50: HELA cells; for TGI: total growth inhibition; for GI50: HELA cervix carcinoma cells; for CC50: read-out: LC50, cell killing
Procedure: as §1, §2, §3, §4, §5, §6

A549 = experiment: SRB colorimetric cell growth inhibition assay, A549; conditions: SRB, 48 hours exposure; for TGI / CC50: A549 cells; for TGI: total growth inhibition; for GI50: A549 lung carcinoma cells; for CC50: read-out: LC50, cell killing
Procedure: as §1, §2, §3, §4, §5, §6

DU145 = experiment: SRB colorimetric cell growth inhibition assay, DU145; conditions: SRB, 48 hours exposure; for TGI / CC50: DU145 cells; for TGI: total growth inhibition; for GI50: DU145 prostate carcinoma cells; for CC50: read-out: LC50, cell killing
Procedure: as §1, §2, §3, §4, §5, §6

LOVO = experiment: SRB colorimetric cell growth inhibition assay, LOVO; conditions: SRB, 48 hours exposure; for TGI / CC50: LOVO cells; for TGI: total growth inhibition; for GI50: LOVO colon adenocarcinoma cells; for CC50: read-out: LC50, cell killing
Procedure: as §1, §2, §3, §4, §5, §6

SK-BR3 = experiment: SRB colorimetric cell growth inhibition assay, SK-BR3; conditions: SRB, 48 hours exposure; for GI50: SK-BR3 breast adenocarcinoma cells; for TGI / CC50: SK-BR3 cells; for TGI: total growth inhibition; for CC50: read-out: LC50, cell killing
Procedure: as §1, §2, §3, §4, §5, §6

IGROV-ET = experiment: SRB colorimetric cell growth inhibition assay, IGROV-ET; conditions: SRB, 48 hours exposure; for GI50: IGROV-ET (ET-743 resistant) ovary cells; for TGI / CC50: IGROV-ET cells; for TGI: total growth inhibition; for CC50: read-out: LC50, cell killing
Procedure: as §1, §2, §3, §4, §5, §6

PANC1 = experiment: SRB colorimetric cell growth inhibition assay, PANC1; conditions: SRB, 48 hours exposure; for TGI / CC50: PANC1 cells; for TGI: total growth inhibition; for GI50: PANC1 pancreatic carcinoma cells; for CC50: read-out: LC50, cell killing
Procedure: as §1, §2, §3, §4, §5, §6

HT29 = experiment: SRB colorimetric cell growth inhibition assay, HT29; conditions: SRB, 48 hours exposure; for TGI / CC50: HT29 cells; for TGI: total growth inhibition; for GI50: HT29 colon adenocarcinoma cells; for CC50: read-out: LC50, cell killing
Procedure: as §1, §2, §3, §4, §5, §6

COc1ccc(C[C@H]2C(=O)O[C@H](C)[C@H](NC(=O)OC(C)(C)C)C(=O)N[C@H](C(C)C)[C@@H](O)CC(=O)O[C@@H](C(C)C)C(=O)N[C@@H](CC(C)C)C(=O)N(C)[C@@H](C)C(=O)N2C)cc1
ring closure, yield of all isomers ([1]; from CN[C@@H](Cc1ccc(OC)cc1)C(=O)O[C@H](C)[C@H](NC(=O)OC(C)(C)C)C(=O)N[C@H](C(C)C)[C@@H](O)CC(=O)O[C@H](C(=O)N[C@@H](CC(C)C)C(=O)N(C)[C@@H](C)C(=O)O)C(C)C, 4.8 mM): 48%

COc1ccc(C[C@H]2C(=O)O[C@H](C)[C@H](NC(=O)OC(C)(C)C)C(=O)N[C@H](C(C)C)[C@@H](O)CC(=O)O[C@@H](C(C)C)C(=O)N[C@@H](CC(C)C)C(=O)N[C@@H](C)C(=O)N2C)cc1
ring closure, yield of all isomers ([1]; from CN[C@@H](Cc1ccc(OC)cc1)C(=O)O[C@H](C)[C@H](NC(=O)OC(C)(C)C)C(=O)N[C@H](C(C)C)[C@@H](O)CC(=O)O[C@H](C(=O)N[C@@H](CC(C)C)C(=O)N[C@@H](C)C(=O)O)C(C)C, 4.6 mM): 60%

CC(C)C[C@@H]1NC(=O)[C@H](C(C)C)OC(=O)C[C@H](O)[C@@H](C(C)C)NC(=O)[C@@H](NC(=O)[C@@H](CC(C)C)N(C)C(=O)[C@@H]2CCCN2C(=O)[C@H](C)O)[C@@H](C)OC(=O)[C@H](Cc2ccccc2)N(C)C(=O)[C@@H]2CCCN2C1=O [Phe^5 tamandarin B, [N-MePhe^5]-Tamandarin B] (H-[Lac]P[dNMeL]T[Hexanoyl(3S-OH,4R-NH2,5-Me)][Hiv]LP[NMeF]; ester 4-C)
TGI (IGROV): 1.28E−08 Molar | GI50 (IGROV): 2.49 nM | CC50 (IGROV): 124 nM | GI50 (SK-MEL-28): 2.74 nM | TGI (SK-MEL-28): 1.88E−08 Molar | CC50 (SK-MEL-28): 205 nM | GI50 (HELA-APL): 44.5 nM | TGI (HELA-APL): 4.23E−07 Molar | CC50 (HELA-APL): 9880 nM | GI50 (LOVO-DOX): 358 nM | TGI (LOVO-DOX): 1.97E−06 Molar | CC50 (LOVO-DOX): 9880 nM | GI50 (K562): 23.2 nM | TGI (K562): 9.88E−07 Molar | CC50 (K562): 9880 nM | TGI (LN-caP): 8.32E−09 Molar | GI50 (LN-caP): 1.52 nM | CC50 (LN-caP): 101 nM | TGI (HELA): 4.61E−09 Molar | GI50 (HELA): 1.17 nM | CC50 (HELA): 55.5 nM | TGI (A549): 3.90E−08 Molar | GI50 (A549): 4.56 nM | CC50 (A549): 935 nM | TGI (DU145): 1.02E−08 Molar | GI50 (DU145): 2.37 nM | CC50 (DU145): 268 nM | TGI (LOVO): 8.81E−08 Molar | GI50 (LOVO): 26.1 nM | CC50 (LOVO): 5220 nM | GI50 (SK-BR3): 0.658 nM | TGI (SK-BR3): 4.49E−09 Molar | CC50 (SK-BR3): 312 nM | GI50 (IGROV-ET): 215 nM | TGI (IGROV-ET): 7.88E−07 Molar | CC50 (IGROV-ET): 6350 nM | TGI (PANC1): 3.28E−08 Molar | GI50 (PANC1): 3.81 nM | CC50 (PANC1): 9880 nM | TGI (HT29): 7.89E−08 Molar | GI50 (HT29): 4.77 nM | CC50 (HT29): 9880 nM

COc1ccc(C[C@H]2C(=O)O[C@H](C)[C@H](NC(=O)[C@@H](CC(C)C)N(C)C(=O)[C@@H]3CCCN3C(=O)[C@H](C)O)C(=O)N[C@H](C(C)C)[C@@H](O)CC(=O)O[C@@H](C(C)C)C(=O)N[C@@H](CC(C)C)C(=O)N3CCC[C@H]3C(=O)N2C)cc1 [tamandarin B, Tamandarin B, reference compound] (H-[Lac]P[dNMeL]T[Hexanoyl(3S-OH,4R-NH2,5-Me)][Hiv]LP[NMeY](Me); ester 4-C)
TGI (IGROV): 2.91E−08 Molar | GI50 (IGROV): 7.31 nM | CC50 (IGROV): 133 nM | GI50 (SK-MEL-28): 3.03 nM | TGI (SK-MEL-28): 1.19E−08 Molar | CC50 (SK-MEL-28): 119 nM | GI50 (HELA-APL): 59.7 nM | TGI (HELA-APL): 1.16E−06 Molar | CC50 (HELA-APL): 9590 nM | GI50 (LOVO-DOX): 1250 nM | TGI (LOVO-DOX): 9.59E−06 Molar | CC50 (LOVO-DOX): 9590 nM | GI50 (K562): 8.47 nM | TGI (K562): 2.63E−08 Molar | CC50 (K562): 78.2 nM | TGI (LN-caP): 2.13E−08 Molar | GI50 (LN-caP): 5.84 nM | CC50 (LN-caP): 142 nM | TGI (HELA): 1.76E−08 Molar | GI50 (HELA): 3.9 nM | CC50 (HELA): 120 nM | TGI (A549): 4.01E−08 Molar | GI50 (A549): 7.62 nM | CC50 (A549): 766 nM | TGI (DU145): 2.41E−08 Molar | GI50 (DU145): 7.08 nM | CC50 (DU145): 79.7 nM | TGI (LOVO): 1.61E−07 Molar | GI50 (LOVO): 30.5 nM | CC50 (LOVO): 9590 nM | GI50 (SK-BR3): 5.44 nM | TGI (SK-BR3): 2.49E−08 Molar | CC50 (SK-BR3): 236 nM | GI50 (IGROV-ET): 173 nM | TGI (IGROV-ET): 2.04E−06 Molar | CC50 (IGROV-ET): 9590 nM | TGI (PANC1): 5.69E−08 Molar | GI50 (PANC1): 14 nM | CC50 (PANC1): 413 nM | TGI (HT29): 4.32E−08 Molar | GI50 (HT29): 6.32 nM | CC50 (HT29): 9590 nM
